What was measured:
[1] = system: MIA PaCa-2 human pancreas tumor xenograft; test: MIA PaCa-2 human pancreas tumor xenograft model (Example 3); type: in vivo; details: for Day 35 TW (mg) ± SEM: Day 35 mean tumor weight, Q3Dx4
Procedure: SapC-DOPS was received from Bexion Pharmaceuticals, Inc. and were stored at […] until use. Separate aliquoted vials of SapC-DOPS for the 7.3 mg/kg dose were received. Separate aliquoted vials of vehicle were received, which contained DOPS and no SapC. Each vial was resuspended in 1.2 ml of sterile water for injection (Lot #JPJ551, 13/Braun Medical, Inc., Irvine Calif.). Once formulated, SapC-DOPS was delivered at a 10 ml/kg dose volume. SapC-DOPS and vehicle were formulated fresh daily and administered immediately after preparation.
Gemcitabine (Lot #A735891A) was manufactured by Eli Lilly and Co. (Indianapolis, Ind.) and diluted in a 0.9% NaCl solution (B. Braun Medical, Inc., Irvine, Calif., Lot #J0K465) to a concentration of 4 mg/ml to deliver a 40 mg/kg dose at a 10 ml/kg dose volume. All preparations were made fresh prior to their administration.
The MIA Paca-2 human pancreas tumor cell line was received from American Type Culture Collection (ATCC, Manassas, Va.). Cultures were maintained in RPMI-1640 (Hyclone, Logan, Utah) supplemented with 5% fetal bovine serum, and housed in a 5% CO2 atmosphere. The cultures were expanded in tissue culture flasks at a 1:4 split ratio until a sufficient amount of cells were harvested.
Female NCR nude mice (CrTac:NCR-Foxn1^nu) were supplied by Taconic (Germantown, N.Y.). Mice were received at four weeks' of age, 12-15 g in weight. All mice were acclimated for seven days prior to handling. The mice were housed in microisolator cages (Lab Products, Seaford, Del.) and maintained under specific pathogen-free conditions. The mice were fed PicoLab® irradiated mouse chow (Lab Diet, Richmond, Ind.) and autoclaved water was freely available. […]
Five days following inoculation, tumors were measured using calipers and tumor weight was calculated using the animal study management software, Study Director V. 1.7.54 k (Study Log)^1, Thirty mice with tumor sizes of 105-158 mg were pair-matched into three groups of ten mice each (Day 1). Body weights were recorded when the mice were pair-matched and were taken twice weekly thereafter in conjunction with tumor measurements. […]
On Day 35, tumors were collected from two randomly selected mice per group. […] The lungs were fixed in formalin (Lot #4117, Azer Scientific, Morgantown, Pa.) and sent to the Mayo Clinic Histology (Scottsdale, Ariz.) to be paraffin blocked process through H&E. The lungs were analyzed by a pathologist at Mayo Clinic with emphasis on evidence of granuloma on the lungs.
Mean tumor growth inhibition (TGI) was calculated utilizing the following formula (any tumors that regressed were not used in calculations): […]
The mean tumor shrinkage of each group was calculated and reported. […]

MIA-PaCa-2 cells = test: Surface PS (annexin V-APC) and TUNEL apoptosis stain, MIA-PaCa-2 (FIG. 3B); type: cell-based, human
Procedure: (§1) FIG. 3. GEM exposure triggers PS externalization in pancreatic tumor cells. AsPC-1 (A) and Mia-PaCa-2 (B) cells were treated with varying doses of GEM for 24 h, TUNEL apoptosis stain was performed after surface PS staining with annexin V-APC. The overlay histograms show TUNEL-negative (non-apoptotic) cells. TUNEL positive [AsPC-1: CTL=0.3; GEM 10 nM=2.5; GEM 100 nM=4.6]; [MIA-PaCa-2: CTL=3.6; GEM 1 μM=21].
(§2) Importantly, in low surface PS cells a clear increase was evident using sub-toxic concentrations of GEM that caused <10% apoptosis.
(§3) Various cell types were analyzed for surface PS exposure by flow cytometry with annexin V-FTIC. Involvement of flippases in the regulation of surface PS exposure was analyzed by flippase activity assay. Total cellular PS was quantified by TLC separation of phospholipids and estimation of PS phosphorous. Orthotopic PDAC tumors were established by injecting human or murine PDAC cells into animal pancreas. In vivo bioluminescence and fluorescence imaging were performed to monitor tumor targeting and growth. The molecular mechanisms underlying the induction of apoptosis by SapC-DOPS were evaluated in cultured PDAC cells through measurements of cell viability, TUNEL, and flow cytometric DNA fragmentation.

AsPC-1 cells = test: Surface PS (annexin V-APC) and TUNEL apoptosis stain, AsPC-1 (FIG. 3A); type: cell-based, human; details: for TUNEL positive: 24 h (CTL=0.3)
Procedure: as §1, §2, §3

PDAC cells = test: Surface PS exposure by flow cytometry with annexin V; type: cell-based; details: chemotherapy treatment of PDAC cells
Procedure: as §3

## Nc1ccn([C@@H]2O[C@H](CO)[C@@H](O)C2(F)F)c(=O)n1 [Gemcitabine]
[1]; 10 mice per group, study to Day 35
  Total Deaths: 0
[1]
  Day 35 TW (mg) ± SEM: 936.0 ± 135.1 mg
[1]; listed as gemcitabine
  Day 35 TW (mg) ± SEM: 936.0 mg
[1]; mouse, in vivo
  tolerability: well tolerated
MIA-PaCa-2 cells; 24 h, varying doses, moderate surface PS cell line
  external PS in viable cells: dose-dependent increase
MIA-PaCa-2 cells; GEM 1 μM, 24 h (CTL=3.6)
  TUNEL positive: 21
AsPC-1 cells; 24 h, varying doses, relatively low surface PS cell line
  external PS in viable cells: dose-dependent increase
AsPC-1 cells; GEM 10 nM
  TUNEL positive: 2.5
AsPC-1 cells; GEM 100 nM
  TUNEL positive: 4.6
AsPC-1 cells; sub-toxic concentrations of GEM giving a clear PS increase in low surface PS cells
  apoptosis: < 10%
PDAC cells
  surface PS levels: increase surface PS levels

Reference: patent US20220088042A1, “COMBINATION THERAPY INCLUDING SAPC-DOPS FOR THE TREATMENT OF PANCREATIC CANCER” (priority 2016, published 2022)
